Literature values as cited in publication PMC8764166, “Phenolic-Rich Plant Extracts With Antimicrobial Activity: An Alternative to Food Preservatives and Biocides?” (Frontiers in Microbiology, 2022).
In brackets after ≈: the same amount, converted by molar mass. Where two headings read alike, the source gives them in different places.

Tests used:
S. aureus [1] = tested on: S. aureus; set-up: method as in Wu et al., 2016; details: ref Wu et al., 2016
S. aureus [2] = tested on: S. aureus; set-up: method as in Wu et al., 2016, 2019; details: ref Wu et al., 2016, 2019
[3] = tested on: transmembrane peptidase sortase A, SrtA; set-up: method as in Wu et al. (2019); details: ref Wu et al. (2019)
B. subtilis = tested on: B. subtilis; set-up: method as in Wu et al., 2020; details: ref Wu et al., 2020
L. monocytogenes = tested on: L. monocytogenes; set-up: method as in Pernin et al., 2019; details: ref Pernin et al., 2019
Bacillus subtilis = tested on: Bacillus subtilis; set-up: method as in An et al., 2021; details: ref An et al., 2021
Enterococcus. faecium = tested on: Enterococcus. faecium; set-up: method as in An et al., 2021; details: ref An et al., 2021
Staphylococcus aureus = details: ref An et al., 2021
Pseudomonas aeruginosa = details: ref An et al., 2021
[4] = tested on: Three S. enterica strains; set-up: method as in Plumed-Ferrer et al., 2013; details: ref Plumed-Ferrer et al., 2013
[5] = tested on: B. subtilis, E. coli, S. aureus, and S. typhimurium; set-up: method as in Dinesh Kumar et al., 2016; details: all test bacteria; ref Dinesh Kumar et al., 2016
DNA gyrase = tested on: DNA gyrase; set-up: method as in Plaper et al., 2003; details: ref Plaper et al., 2003
[6] = tested on: biofilms with undesirable food spoiling or foodborne pathogenic microorganisms; set-up: method as in the references listed per substance; details: the references listed per substance
Salmonella typhimurium = details: ref Phadungkit and Luanratana, 2006
Bacillus cereus = tested on: Bacillus cereus; set-up: method as in Serra et al. (2008); details: 20 mg·L^−1 quercetin, in grape extract or as solution; ref Serra et al. (2008)

Structure (SMILES): O=C(/C=C/c1ccc(O)cc1)OC1C(O)C(O)CC(O)(C(=O)O)C1O (stereo not drawn) [3-p-trans-coumaroyl-2-hydroxyquinic acid]
- cytoplasmic membrane damage (S. aureus [1]): – interaction with membrane lipid and protein, damage of cytoplasmic membrane with a significant membrane hyperpolarization, a loss of membrane integrity and severe morphological changes
- S. aureus biofilm formation (S. aureus [2]): – inhibits the biofilm formation of S. aureus by affecting the initial attachment phase of biofilm development
- S. aureus biofilm formation (S. aureus [2]; listed as coumaroyl-2-hydroxyquinic acid): not only inhibits S. aureus biofilm formation, but also the attachment phase
- sortase A (SrtA) inhibition [3]: inhibiting the transmembrane peptidase sortase A, SrtA

Structure (SMILES): O=C(/C=C/c1ccc(O)c(O)c1)O[C@@H]1C[C@](O)(C(=O)O)C[C@@H](O)[C@H]1O [Chlorogenic acid]
- intracellular metabolism (metabolomics) (B. subtilis): – induction of the intracellular metabolic imbalance of the tricarboxylic acid cycle and glycolysis, leading to metabolic disorder and death
- MIC against E. coli (Escherichia coli; ref Adamczak et al., 2020): E. coli 0.5 g·L^−1
- mechanism of action against L. monocytogenes (L. monocytogenes): decrease in extracellular pH

Structure (SMILES): O=c1oc2c(O)c(O)cc3c(=O)oc4c(O)c(O)cc1c4c23 [Ellagic acid]
- MIC against Bacillus subtilis (Bacillus subtilis): 500 µg/mL (≈ 1650 µM)
- MIC against Enterococcus. faecium (Enterococcus. faecium): 250 µg/mL (≈ 827 µM)
- MIC against S. aureus (Staphylococcus aureus): 250 µg/mL (≈ 827 µM)
- MIC against P. aeruginosa (Pseudomonas aeruginosa): 500 µg/mL (≈ 1650 µM)
- MIC against E. coli (Escherichia coli; ref An et al., 2021): 250 µg/mL (≈ 827 µM)

Structure (SMILES): Oc1cc(O)cc(/C=C/c2ccccc2)c1 [Pinosylvin]
- outer membrane destabilization [4]: – destabilization of the outer membrane of Salmonella cells partially abolished by MgCl2 addition indicating thus that part of its activity is related to the chelation of outer membrane stabilizing divalent cations, such as Mg^2+

Structure (SMILES): O=c1c(O)c(-c2ccc(O)c(O)c2)oc2cc(O)cc(O)c12 [Quercetin]
- time after which antibacterial effect is lost [5]: 2 to 9 h
- DNA gyrase inhibition (DNA gyrase): – DNA gyrase inhibition either by interaction of quercetin with DNA or with ATP binding site of gyrase
- activity against biofilms [6]: inhibit formation or to eradicate biofilms
- MIC against E. coli (Escherichia coli; ref Adamczak et al., 2020): E. coli 0.5 g·L^−1
- MIC against S. typhimurium (Salmonella typhimurium): S. typhimurium 15.6 mg·L^−1
- growth of Bacillus cereus (Bacillus cereus): totally inhibited the growth of Bacillus cereus unlike a 20 mg·L^−1 quercetin solution
